Remaining activity data for two compounds are collected here from patent publication US20070117770A1, “Human ribosomal DNA (rDNA) and ribosomal RNA (rRNA) nucleic acids and uses thereof” (Cylene Pharmaceuticals, Inc., priority 2005, published 2007).

Each structure is given as a SMILES string.

Assay in all cases: Protein kinase inhibition assay
Format in all cases: biochemical

The target of one assay is CDK3/cyclinE(h) (Homo sapiens, UniProt Q00526). The note with it: read-out: percent residual activity of CDK3/cyclinE(h). As for the experimental part:
(§1) Certain compounds were tested for activity in protein kinase inhibition assays. All substrates were dissolved and diluted to working stocks in de-ionized water, apart from histone H1 (10× working stock in 20 mM MOPS pH 7.0), PDKtide (10× working stock in 50 mM Tris pH 7.0) ATF2 (which is typically stored at a 20× working stock in 50 mM Tris pH 7.5, 150 mM NaCl, 0.1 mM EGTA, 0.03% Brij-35, 50% glycerol, 1 mM benzamidine, 0.2 mM PMSF and 0.1% R-mercaptoethanol), KKLNRTLSFAEPG (SEQ ID NO:203) and RRRLSFAEPG (SEQ ID NO:204) (50 mM HEPES pH 7.4) and GGEEEEYFELVKKKK (SEQ ID NO:205) (20 mM MOPS pH 7.0). All kinases were pre-diluted to a 10× working concentration prior to addition into the assay. The composition of the dilution buffer for each kinase is detailed below.
(§2) In a final reaction volume of 25 μl, CDK3/cyclinE (h) (5-10 mU) is incubated with 8 mM MOPS pH 7.0, 0.2 mM EDTA, 0.1 mg/ml histone H1, 10 mM MgAcetate and [gamma-33P-ATP] (specific activity approx. 500 cpm/pmol, concentration as required). The reaction is initiated by the addition of the MgATP mix. After incubation for 40 minutes at room temperature, the reaction is stopped by the addition of 5 μl of a 3% phosphoric acid solution. 10 μl of the reaction is then spotted onto a P30 filtermat and washed three times for 5 minutes in 75 mM phosphoric acid and once in methanol prior to drying and scintillation counting.

The target of another assay is cKit(D816V)(h) (Homo sapiens, UniProt P10721, D816V). The note with it: read-out: percent residual activity of cKit(D816V)(h). As for the experimental part:
as §1
In a final reaction volume of 25 μl, cKit (D816V) (h) (5-10 mU) is incubated with 8 mM MOPS pH 7.0, 0.2 mM EDTA, 10 mM MnCl2, 0.1 mg/ml poly(Glu, Tyr) 4:1, 10 mM MgAcetate and [gamma-33P-ATP] (specific activity approx. 500 cpm/pmol, concentration as required). The reaction is initiated by the addition of the MgATP mix. After incubation for 40 minutes at room temperature, the reaction is stopped by the addition of 5 μl of a 3% phosphoric acid solution. […]

The target in a further assay is EphA3(h) (Homo sapiens, UniProt P29320). To be noted: read-out: percent residual activity of EphA3(h). As for the experimental part: as §1
EphA3(h), sequence (P29320 21-983): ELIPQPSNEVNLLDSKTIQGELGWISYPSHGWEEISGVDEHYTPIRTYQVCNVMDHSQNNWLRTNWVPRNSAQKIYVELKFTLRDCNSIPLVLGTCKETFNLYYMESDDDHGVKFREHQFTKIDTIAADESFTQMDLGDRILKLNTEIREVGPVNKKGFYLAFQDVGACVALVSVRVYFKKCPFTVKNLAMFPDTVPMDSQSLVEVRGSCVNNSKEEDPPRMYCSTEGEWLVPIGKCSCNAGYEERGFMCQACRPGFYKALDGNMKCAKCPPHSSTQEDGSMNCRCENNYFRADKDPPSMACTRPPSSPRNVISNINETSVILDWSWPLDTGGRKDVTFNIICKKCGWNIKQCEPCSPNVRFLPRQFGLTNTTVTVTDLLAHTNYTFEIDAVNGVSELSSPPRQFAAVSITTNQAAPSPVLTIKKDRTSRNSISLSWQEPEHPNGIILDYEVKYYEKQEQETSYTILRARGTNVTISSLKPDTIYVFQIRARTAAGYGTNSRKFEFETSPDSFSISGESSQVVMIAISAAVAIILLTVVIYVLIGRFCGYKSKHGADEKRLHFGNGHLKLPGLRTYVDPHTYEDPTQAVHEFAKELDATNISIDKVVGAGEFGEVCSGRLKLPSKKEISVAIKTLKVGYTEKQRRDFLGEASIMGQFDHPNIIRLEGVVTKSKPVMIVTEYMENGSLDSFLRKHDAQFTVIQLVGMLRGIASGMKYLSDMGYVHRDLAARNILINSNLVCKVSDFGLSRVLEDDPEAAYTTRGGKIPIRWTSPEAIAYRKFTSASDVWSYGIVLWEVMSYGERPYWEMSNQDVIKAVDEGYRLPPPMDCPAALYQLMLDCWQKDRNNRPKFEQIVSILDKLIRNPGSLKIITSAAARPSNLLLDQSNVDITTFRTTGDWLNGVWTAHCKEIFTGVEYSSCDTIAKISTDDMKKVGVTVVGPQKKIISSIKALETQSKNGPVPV
as §2, with “EphA3” for “CDK3/cyclinE”, “poly(Glu, Tyr) 4:1,” for “histone H1,”, “Filtermat A” for “P30 filtermat”

Another assay deals with MuSK(h) (Homo sapiens, UniProt O15146). The note with it: read-out: percent residual activity of MuSK(h). As for the experimental part:
as §1
as §2, with “MuSK” for “CDK3/cyclinE”, “5 mM MnCl2, 0.33” for “0.1”, “myelin basic protein,” for “histone H1,”

The target in another assay is RIPK2(h) (Homo sapiens, UniProt O43353). To be noted: read-out: percent residual activity of RIPK2(h). As for the experimental part:
as §1
as §2, with “RIPK2” for “CDK3/cyclinE”, “0.33” for “0.1”, “myelin basic protein,” for “histone H1,”

The target in a further assay is Syk(h) (Homo sapiens, UniProt P43405). The note with it: read-out: percent residual activity of Syk(h). As for the experimental part:
as §1
In a final reaction volume of 25 μl, Syk (h) (5-10 mU) is incubated with 50 mM Tris pH 7.5, 0.1 mM EGTA, 0.1 mM Na3VO4, 0.1% R-mercaptoethanol, 0.1 mg/ml poly(Glu, Tyr) 4:1, 10 mM MgAcetate and [gamma-33P-ATP] (specific activity approx. 500 cpm/pmol, concentration as required). The reaction is initiated by the addition of the MgATP mix. After incubation for 40 minutes at room temperature, the reaction is stopped by the addition of 5 μl of a 3% phosphoric acid solution. […]

CDK3/cyclinE(h), sequence (Q00526 whole entry): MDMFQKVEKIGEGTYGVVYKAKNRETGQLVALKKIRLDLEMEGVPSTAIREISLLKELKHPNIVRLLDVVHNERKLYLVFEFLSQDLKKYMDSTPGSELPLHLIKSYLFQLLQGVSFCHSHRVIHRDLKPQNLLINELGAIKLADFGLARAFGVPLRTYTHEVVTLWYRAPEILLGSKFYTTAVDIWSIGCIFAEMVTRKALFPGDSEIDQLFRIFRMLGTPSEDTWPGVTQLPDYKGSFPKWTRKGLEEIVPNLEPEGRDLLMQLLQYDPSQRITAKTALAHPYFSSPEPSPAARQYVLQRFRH
CDK3/cyclinE(h), sequence (P24864 whole entry partner): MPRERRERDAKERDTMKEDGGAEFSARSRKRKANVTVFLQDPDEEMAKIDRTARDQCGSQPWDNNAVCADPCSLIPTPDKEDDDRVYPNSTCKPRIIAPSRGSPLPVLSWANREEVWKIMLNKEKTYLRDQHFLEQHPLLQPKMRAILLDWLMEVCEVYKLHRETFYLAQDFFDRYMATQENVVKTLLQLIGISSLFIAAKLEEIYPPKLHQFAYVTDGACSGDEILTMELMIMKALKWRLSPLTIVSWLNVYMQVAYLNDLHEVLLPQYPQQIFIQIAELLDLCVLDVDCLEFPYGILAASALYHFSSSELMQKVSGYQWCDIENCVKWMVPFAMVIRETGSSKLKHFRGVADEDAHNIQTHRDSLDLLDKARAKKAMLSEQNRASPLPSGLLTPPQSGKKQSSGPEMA
cKit(D816V)(h), sequence (P10721 26-976 D816V): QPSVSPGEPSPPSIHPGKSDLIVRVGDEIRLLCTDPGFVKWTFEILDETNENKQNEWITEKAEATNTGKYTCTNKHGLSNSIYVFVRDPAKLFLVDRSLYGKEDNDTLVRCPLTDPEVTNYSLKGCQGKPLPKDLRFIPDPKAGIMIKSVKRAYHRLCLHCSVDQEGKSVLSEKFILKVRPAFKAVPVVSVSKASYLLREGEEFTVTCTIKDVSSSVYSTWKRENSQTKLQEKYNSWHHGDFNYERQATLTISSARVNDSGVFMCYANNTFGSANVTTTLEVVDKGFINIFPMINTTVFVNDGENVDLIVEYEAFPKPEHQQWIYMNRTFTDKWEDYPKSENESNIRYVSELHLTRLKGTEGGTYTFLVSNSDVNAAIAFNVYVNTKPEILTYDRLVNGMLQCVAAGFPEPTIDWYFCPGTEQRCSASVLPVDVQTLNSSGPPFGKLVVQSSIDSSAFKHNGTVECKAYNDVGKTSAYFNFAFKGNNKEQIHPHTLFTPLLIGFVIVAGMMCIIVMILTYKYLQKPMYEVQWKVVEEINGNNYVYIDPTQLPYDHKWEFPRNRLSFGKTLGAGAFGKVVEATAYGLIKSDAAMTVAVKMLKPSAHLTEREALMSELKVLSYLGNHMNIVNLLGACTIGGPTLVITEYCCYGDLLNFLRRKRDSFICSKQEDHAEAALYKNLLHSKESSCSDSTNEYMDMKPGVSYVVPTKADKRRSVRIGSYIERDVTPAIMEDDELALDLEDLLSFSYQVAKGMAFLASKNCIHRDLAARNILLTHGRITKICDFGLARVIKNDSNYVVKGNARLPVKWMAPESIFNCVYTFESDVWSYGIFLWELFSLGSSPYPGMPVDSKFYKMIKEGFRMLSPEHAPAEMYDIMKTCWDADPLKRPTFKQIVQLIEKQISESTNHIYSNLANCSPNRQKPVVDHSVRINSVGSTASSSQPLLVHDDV
MuSK(h), sequence (O15146 24-869): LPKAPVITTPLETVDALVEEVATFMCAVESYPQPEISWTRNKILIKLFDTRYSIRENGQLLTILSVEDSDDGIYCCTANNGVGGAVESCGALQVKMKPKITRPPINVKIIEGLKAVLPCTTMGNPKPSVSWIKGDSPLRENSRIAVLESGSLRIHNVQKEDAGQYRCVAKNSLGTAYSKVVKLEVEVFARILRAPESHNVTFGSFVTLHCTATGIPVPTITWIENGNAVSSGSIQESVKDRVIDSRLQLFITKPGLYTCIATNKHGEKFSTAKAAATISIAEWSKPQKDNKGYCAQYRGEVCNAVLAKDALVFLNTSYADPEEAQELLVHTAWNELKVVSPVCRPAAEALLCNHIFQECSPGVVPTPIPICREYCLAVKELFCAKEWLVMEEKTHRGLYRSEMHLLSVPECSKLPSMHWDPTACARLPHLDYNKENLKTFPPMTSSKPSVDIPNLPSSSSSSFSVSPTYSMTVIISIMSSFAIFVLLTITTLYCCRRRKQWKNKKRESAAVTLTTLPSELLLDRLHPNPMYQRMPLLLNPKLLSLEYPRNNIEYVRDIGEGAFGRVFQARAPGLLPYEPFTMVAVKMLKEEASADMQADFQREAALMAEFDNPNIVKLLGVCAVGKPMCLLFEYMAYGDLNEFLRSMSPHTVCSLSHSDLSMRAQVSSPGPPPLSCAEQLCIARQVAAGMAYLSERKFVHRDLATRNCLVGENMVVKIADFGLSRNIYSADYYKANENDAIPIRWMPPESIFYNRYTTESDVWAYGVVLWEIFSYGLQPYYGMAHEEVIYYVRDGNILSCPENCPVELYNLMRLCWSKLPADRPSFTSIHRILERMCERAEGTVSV
RIPK2(h), sequence (O43353 whole entry): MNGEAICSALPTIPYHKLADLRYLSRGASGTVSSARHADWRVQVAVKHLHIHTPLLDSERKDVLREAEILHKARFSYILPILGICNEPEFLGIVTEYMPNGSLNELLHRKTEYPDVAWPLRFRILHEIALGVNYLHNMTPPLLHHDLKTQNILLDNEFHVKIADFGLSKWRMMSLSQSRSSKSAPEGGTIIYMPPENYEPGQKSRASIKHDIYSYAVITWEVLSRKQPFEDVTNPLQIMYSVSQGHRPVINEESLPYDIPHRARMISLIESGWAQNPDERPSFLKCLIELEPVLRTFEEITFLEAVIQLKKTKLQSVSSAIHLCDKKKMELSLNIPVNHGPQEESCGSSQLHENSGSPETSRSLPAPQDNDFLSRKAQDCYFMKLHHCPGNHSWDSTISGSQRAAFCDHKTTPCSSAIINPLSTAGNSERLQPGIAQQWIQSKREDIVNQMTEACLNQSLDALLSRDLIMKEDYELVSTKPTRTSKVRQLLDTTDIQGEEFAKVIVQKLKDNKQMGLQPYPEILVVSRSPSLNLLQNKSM

Regarding `CN1CCCC1CCNC(=O)c1cn2c3c(c(N4CCC(c5cnccn5)C4)c(F)cc3c1=O)Oc1cc3ccccc3cc1-2` (stereo not drawn) [Compound A-1], the remaining activity at 2.5 µM on CDK3/cyclinE(h) was found to be 93%; at cKit(D816V)(h), 104%; at EphA3(h) it was 91%; on MuSK(h), 110%; at RIPK2(h) it was 95%; at Syk(h), 67%.

Take `CC(=O)N1CCN(c2ccc3c(=O)c(C(=O)NCCN4CCCC4)c4n(C)c5ccccc5n4c3n2)CC1` [Compound B-1]: the remaining activity at 2.5 µM at CDK3/cyclinE(h) was 103%; at cKit(D816V)(h), 103%; at EphA3(h), 118%; on MuSK(h) it was 108%; on RIPK2(h), 99%; on Syk(h), 111%.
